{"source": "patent US20220040349A1", "about": "“ANTIVIRAL METHODS AND COMPOSITIONS” (priority 2020, published 2022)", "key": {"[1]": {"test_system": "E coli", "assay": "Light-activated killing of bacteria (Example III-1)", "type": "cell-based", "from_the_text": "No killing of bacteria in the dark has yet been observed."}, "[2]": {"test_system": "E. coli", "assay": "Killing of E. coli suspended in solution under irradiation or dark incubation (Part IV)", "type": "cell-based", "details": "for killing of E. coli / killing of E. coli at longer times: 1-10 μg/mL; for killing of E. coli: five minutes of irradiation; for killing of E. coli at longer times: longer than five minutes; for activity against E. coli in suspension in the dark: dark incubation", "from_the_text": "(§1) In the current study we have observed Compound E, Compound D, and Formula X in aqueous media with suspensions of E. coli and SARS-CoV-2 for Compound E and with suspensions of E. coli for Compound D and Formula X. We have also studied these oligomers as supported coatings on various supporting materials including wipe scaffolds, commercial Kimwipes, and proprietary materials from Diamond Wipes and HYDAC."}, "[3]": {"test_system": "mammal models", "details": "in vivo"}, "[4]": {"test_system": "SARS-CoV-2", "assay": "Compound E-coated glass fiber filter: inactivation of SARS-CoV-2 under cool white light, plaque assay on Vero E6 cells", "type": "cell-based", "details": "for inactivation of the virus: coated on glass fiber, cool white"}, "[5]": {"test_system": "E. coli", "assay": "Killing of E. coli by compound coated on wet wipe surface or filter", "type": "cell-based", "from_the_text": "Compound E was applied to a wet wipe surface and also to the surface of a filter for filtration of air or water.\nas §1"}, "[6]": {"test_system": "SARS-CoV-2", "assay": "Compound E in solution: inactivation of SARS-CoV-2 under cool white light, plaque assay on Vero E6 cells", "type": "cell-based"}, "[7]": {"test_system": "bacteria", "assay": "Antibacterial activity of oligomer IX under visible light and in the dark", "type": "cell-based"}, "[8]": {"test_system": "SARS-CoV-2", "type": "cell-based", "details": "cool white; 30 minutes irradiation (earliest point)"}}, "note": "Entries after “also recorded” stand apart in the source; their conditions may differ.", "data": [{"smiles": "Cn1cc[n+](CCCOc2ccc(C#Cc3ccc(C#Cc4ccc(OCCC[n+]5ccn(C)c5)cc4)cc3)cc2)c1", "note": "[Compound D]", "values": [{"measurement": "relative reactivity", "setting": "[1]", "result": "more reactive than Compound E"}, {"measurement": "anti-bacterial activity using LuzChem cool white light", "setting": "[1]", "result": "excellent anti-bacterial activity"}, {"measurement": "killing of bacteria in the dark", "setting": "[1]", "result": "No killing"}, {"measurement": "light-activated killing of bacteria", "setting": "[1]", "result": "excellent light-activated killing"}, {"measurement": "killing of E. coli", "setting": "[2]; near UV", "result": "~99", "unit": "%"}, {"measurement": "killing of E. coli at longer times", "setting": "[2]; near UV", "result": "complete killing"}, {"measurement": "activity against E. coli in suspension in the dark", "setting": "[2]", "result": "neither compound showed any killing; also recorded: not under visible light or dark conditions"}, {"measurement": "activity against E. coli in suspension under near-UV", "setting": "[2]", "result": "had activity"}, {"measurement": "activity against E. coli in suspension under visible light", "setting": "[2]; visible light", "result": "not under visible light or dark conditions"}]}, {"smiles": "Cn1cc[n+](CCCOc2ccc(C#Cc3ccc(C#Cc4ccc(OCCC[n+]5ccn(C)c5)cc4)s3)cc2)c1", "note": "[Compound E]", "values": [{"measurement": "anti-bacterial activity using LuzChem cool white light", "setting": "[1]", "result": "excellent anti-bacterial activity"}, {"measurement": "killing of bacteria in the dark", "setting": "[1]", "result": "No killing"}, {"measurement": "light-activated killing of bacteria", "setting": "[1]", "result": "excellent light-activated killing"}, {"measurement": "toxicity against mammal models", "setting": "[3]", "result": "no toxicity"}, {"measurement": "inactivation of the virus", "setting": "[4]; 10 minutes irradiation", "result": "about 90%"}, {"measurement": "inactivation of the virus", "setting": "[4]; 30 minutes", "result": 3, "unit": "log"}, {"measurement": "activity against SARS-Cov-2 on a filter", "setting": "[4]; visible light and near-UV", "result": "had activity"}, {"measurement": "light-activated killing of E. coli on coated surface", "setting": "[5]; applied to wet wipe surface and filter surface", "result": "strong light-activated killing"}, {"measurement": "activity against E. coli on a filter in the dark", "setting": "[5]; dark conditions", "result": "not in dark conditions"}, {"measurement": "activity when coated surface immersed in suspension of E. coli", "setting": "[5]; surface immersed in E. coli suspension", "result": "activity was retained"}, {"measurement": "activity against E. coli on a filter", "setting": "[5]; visible light and near-UV", "result": "had activity"}, {"measurement": "activity against SARS-Cov-2 in suspension in the dark", "setting": "[6]; dark conditions", "result": "not in dark conditions"}, {"measurement": "inactivation of the virus", "setting": "[6]; solution (10 μg/mL), cool white, 5 minutes of irradiation", "result": "> 95", "unit": "%"}, {"measurement": "inactivation at longer irradiation", "setting": "[6]; solution, cool white, 10 minutes or longer", "result": "complete deactivation inactivation"}, {"measurement": "activity against SARS-Cov-2 in suspension", "setting": "[6]; visible light and near-UV", "result": "had activity"}, {"measurement": "killing of E. coli", "setting": "[2]; visible light", "result": "~99", "unit": "%"}, {"measurement": "killing of E. coli at longer times", "setting": "[2]; visible light", "result": "complete killing"}, {"measurement": "activity against E. coli in suspension in the dark", "setting": "[2]", "result": "neither compound showed any killing; also recorded: not in dark conditions"}, {"measurement": "activity against E. coli in suspension under near-UV", "setting": "[2]", "result": "had activity"}, {"measurement": "activity against E. coli in suspension under visible light", "setting": "[2]; visible light", "result": "had activity"}]}, {"smiles": "C[N+](C)(C)CCCOc1ccc(C#Cc2ccc(C#Cc3ccc(OCCC[N+](C)(C)C)cc3)cc2)cc1", "note": "[Formula IX]", "values": [{"measurement": "activity against bacteria in the dark", "setting": "[7]; dark", "result": "active against bacteria in the dark"}, {"measurement": "activity under visible light irradiation", "setting": "[7]; visible light", "result": "not active under visible light irradiation"}]}, {"smiles": "C[N+](C)(C)CCCOc1ccc(C#Cc2ccc(C#Cc3ccc(OCCC[N+](C)(C)C)cc3)s2)cc1", "note": "[Formula X]", "values": [{"measurement": "virus present", "setting": "[8]", "result": "no virus present"}, {"measurement": "activity against E. coli in suspension in the dark", "setting": "[2]", "result": "considerable dark reactivity; also recorded: had activity"}, {"measurement": "activity against E. coli in suspension under near-UV", "setting": "[2]", "result": "activity under visible light and near-UV; also recorded: had activity"}, {"measurement": "activity against E. coli in suspension under visible light", "setting": "[2]; visible light", "result": "activity under visible light and near-UV; also recorded: had activity"}]}]}
